The Kd is a measure of binding affinity in units of concentration. One may read the IC50 as the concentration that gives 50% inhibition.

For one series, the target named is T1, CSNK1A1 (Homo sapiens, UniProt P48729).
T1 construct: DNA label (qPCR read-out); purchased DiscoverX (assay service)
The experiment in a line: Kd Elect binding assay (DiscoverX). The note with it: duplicates. The source says: (§1) Nat. Biotechnol. 23, 329-336 (2005).

The next series has as its target T2, CDK8 (Homo sapiens, UniProt P49336).
T2 construct: DNA label (qPCR read-out); purchased DiscoverX (assay service)
The experiment in a line: Kd Elect binding assay (DiscoverX). The settings on record: duplicates.
Text: as §1

For the next series, the target named is T3, CDK19 (Homo sapiens, UniProt Q9BWU1).
T3 construct: DNA label (qPCR read-out); purchased DiscoverX (assay service)
The experiment in a line: Kd Elect binding assay (DiscoverX). The settings on record: duplicates.
Text: as §1

In another series the target is T4, RIOK2 (Homo sapiens, UniProt Q9BVS4).
T4 construct: DNA label (qPCR read-out); purchased DiscoverX (assay service)
The experiment in a line: Kd Elect binding assay (DiscoverX). The note with it: duplicates.
Text: as §1

For another series, the target named is T5, GSK3A (Homo sapiens, UniProt P49840).
T5 construct: DNA label (qPCR read-out); purchased DiscoverX (assay service)
The experiment in a line: Kd Elect binding assay (DiscoverX). The note with it: duplicates.
Text: as §1

The next series has as its system MDA-MB-468 xenografts. The experiment in a line: MDA-MB-468 xenografts in NSG mice. Type of series: in vivo, mouse. The settings on record: 66 days. The method, then: To evaluate the effect of CDK8/19 inhibition on in vivo growth of MDA-MB-468 xenografts, 1 million cells with 40% Matrigel ([…] total volume) were injected s.c. into the right flanks of immunodeficient NSG female mice (9 weeks old). 11 days after inoculation, mice were randomized by tumor size into two groups (n=9), with the average tumor volume 115 mm^3 in each group.

The test system of series [1] is PSA expression in CRPC cell line C4-2. The experiment in a line: PSA expression in C4-2 cell culture supernatant. Type of series: cell-based. The note with it: C4-2, 96 h, read-out: IC50, suppression of PSA expression. The source says: CDK8/19 inhibition decreases the expression of certain androgen-receptor (AR) inducible genes including PSA, the most common marker of prostate cancer, and the growth of castration-refractory prostate cancers (CRPC).

A further series deals with MYC-CAP-CR cells. The experiment in a line: Short-term cell proliferation assay, MYC-CAP-CR. Type of series: cell-based, murine. The note with it: androgen-containing media.
Where [2] appears, read: medicated diet 250 ppm plus daily gavage 5 then 8 mg/kg.

Each structure is given as a SMILES string.

T5 sequence (P49840 whole entry): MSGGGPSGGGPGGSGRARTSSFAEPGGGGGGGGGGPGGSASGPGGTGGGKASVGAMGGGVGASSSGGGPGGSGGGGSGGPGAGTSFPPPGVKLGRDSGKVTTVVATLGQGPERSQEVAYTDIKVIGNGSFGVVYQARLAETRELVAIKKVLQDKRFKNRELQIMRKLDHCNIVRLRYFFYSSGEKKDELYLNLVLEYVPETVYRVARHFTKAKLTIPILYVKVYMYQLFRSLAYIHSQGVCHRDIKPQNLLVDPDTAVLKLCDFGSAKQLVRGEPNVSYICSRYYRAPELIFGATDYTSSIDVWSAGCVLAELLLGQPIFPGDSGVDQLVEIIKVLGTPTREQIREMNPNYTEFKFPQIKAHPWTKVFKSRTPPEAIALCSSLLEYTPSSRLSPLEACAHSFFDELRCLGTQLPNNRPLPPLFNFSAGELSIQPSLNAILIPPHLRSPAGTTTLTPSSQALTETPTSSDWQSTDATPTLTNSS
T1 sequence (P48729 whole entry): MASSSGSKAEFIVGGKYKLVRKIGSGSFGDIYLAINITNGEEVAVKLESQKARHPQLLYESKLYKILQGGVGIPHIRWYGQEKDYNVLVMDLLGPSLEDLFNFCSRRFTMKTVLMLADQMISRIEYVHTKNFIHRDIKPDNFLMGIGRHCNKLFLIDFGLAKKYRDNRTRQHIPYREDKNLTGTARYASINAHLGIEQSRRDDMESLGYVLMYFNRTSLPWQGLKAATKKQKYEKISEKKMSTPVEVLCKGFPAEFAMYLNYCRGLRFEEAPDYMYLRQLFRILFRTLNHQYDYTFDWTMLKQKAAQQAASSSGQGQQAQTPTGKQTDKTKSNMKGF
T4 sequence (Q9BVS4 whole entry): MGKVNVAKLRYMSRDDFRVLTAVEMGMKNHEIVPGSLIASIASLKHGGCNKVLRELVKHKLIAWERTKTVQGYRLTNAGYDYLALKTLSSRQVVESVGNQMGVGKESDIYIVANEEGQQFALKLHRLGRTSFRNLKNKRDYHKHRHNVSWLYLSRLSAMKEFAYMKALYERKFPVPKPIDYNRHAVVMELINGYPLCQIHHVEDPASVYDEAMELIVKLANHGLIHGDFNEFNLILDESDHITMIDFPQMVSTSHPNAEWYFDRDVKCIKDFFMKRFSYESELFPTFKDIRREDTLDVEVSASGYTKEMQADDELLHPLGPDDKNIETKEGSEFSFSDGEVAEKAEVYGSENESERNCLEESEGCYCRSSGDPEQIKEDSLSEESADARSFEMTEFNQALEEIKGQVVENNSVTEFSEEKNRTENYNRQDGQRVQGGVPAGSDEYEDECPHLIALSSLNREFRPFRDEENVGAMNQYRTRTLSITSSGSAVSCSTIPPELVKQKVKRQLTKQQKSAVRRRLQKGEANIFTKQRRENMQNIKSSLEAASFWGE
T2 sequence (P49336 whole entry): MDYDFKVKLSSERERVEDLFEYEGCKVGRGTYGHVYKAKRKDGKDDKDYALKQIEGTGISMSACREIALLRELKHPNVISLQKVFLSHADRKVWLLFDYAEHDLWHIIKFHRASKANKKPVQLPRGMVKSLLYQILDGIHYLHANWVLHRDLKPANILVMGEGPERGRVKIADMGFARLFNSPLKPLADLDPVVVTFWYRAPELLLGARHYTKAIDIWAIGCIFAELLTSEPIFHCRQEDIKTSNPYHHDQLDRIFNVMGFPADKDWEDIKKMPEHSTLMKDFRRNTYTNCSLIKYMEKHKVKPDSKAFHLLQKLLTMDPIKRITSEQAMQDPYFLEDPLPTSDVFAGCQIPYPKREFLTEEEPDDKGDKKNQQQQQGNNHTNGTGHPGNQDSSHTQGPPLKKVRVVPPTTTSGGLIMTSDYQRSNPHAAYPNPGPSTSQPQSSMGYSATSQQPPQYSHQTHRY
T3 sequence (Q9BWU1 whole entry): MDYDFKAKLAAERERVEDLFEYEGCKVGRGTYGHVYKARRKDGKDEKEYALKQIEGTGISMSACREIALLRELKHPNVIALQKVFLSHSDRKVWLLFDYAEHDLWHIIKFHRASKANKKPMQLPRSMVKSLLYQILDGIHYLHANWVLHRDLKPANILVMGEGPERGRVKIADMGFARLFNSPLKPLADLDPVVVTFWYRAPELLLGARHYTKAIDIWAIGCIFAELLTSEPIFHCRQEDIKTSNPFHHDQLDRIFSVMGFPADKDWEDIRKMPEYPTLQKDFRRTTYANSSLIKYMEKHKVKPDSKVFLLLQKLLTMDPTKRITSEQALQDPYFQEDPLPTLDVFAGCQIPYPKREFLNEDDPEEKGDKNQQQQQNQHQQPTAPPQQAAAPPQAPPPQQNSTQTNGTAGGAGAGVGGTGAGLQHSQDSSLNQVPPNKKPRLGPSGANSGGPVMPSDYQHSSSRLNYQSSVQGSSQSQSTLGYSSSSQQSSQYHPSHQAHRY

Consider `CN(C)C(=O)c1ccc(N2CCCN(c3ccnc4sc(C(N)=O)c(N)c34)CC2)cc1` [15u, 3-amino-4-(4-(4-(dimethylcarbamoyl)phenyl)-1,4-diazepan-1-yl)thieno[2,3-b]pyridine-2-carboxamide], for which the Kd at CSNK1A1 was 0.23 µM; at CDK8, 0.078 µM; at CDK19, 0.065 µM; on RIOK2 it was 0.24 µM; on GSK3A, 5.6 µM. In the series with MDA-MB-468 xenografts (long-term treatment), the mouse body weights result was “no detrimental effects”. The final tumor weights entry with MDA-MB-468 xenografts (setting [2]) is “significantly lower”. In the series on MDA-MB-468 xenografts (setting [2]), the tumor volume result is “significant reduction in tumor volume”. In addition, in series [1], the IC50 was found to be 0.0276 µM. In addition, the MYC-CAP-CR cell growth entry in the series on MYC-CAP-CR cells is on record as “little effect”.

The record behind these values is patent US11572369B2, “Bicyclic pyridine compositions and methods of using the same for cancer therapy” (UNIVERSITY OF SOUTH CAROLINA, priority 2019, dated 2023).
